Values joined by “and” are separate entries in the source; they are usually repeats but may differ in a detail not shown here. Identical values can stand only once.

Here are results for 20 compounds from patent US11512042B2, “Enamine compounds for absorbance of electromagnetic energy” (Commonwealth Scientific and Industrial Research Organisation, priority 2015, dated 2022).

Holding throughout (assay type): physicochemical
A short description of data set [1]: % transmission spectrum of 0.1% solution (breakthrough, steepness). To be noted: for Steepness: distance in nm over which transmittance increases from 1 to 80%; for Breakthrough (1% T at 0.1%): value in nm where transmittance increases beyond 1%, 0.1% solution. The source says:
FIG. 2 is a is a graphical representation of the % transmission of compounds 142 and 143 measured in a 2 mm cuvette as 0.1% solutions in methanol (142 is the left most trace);
(§1) The synthesised benzoyl functionalised compounds and their spectroscopic properties can be seen in table 2 wherein; breakthrough denotes the value in nm where transmittance increases beyond 1%; steepness refers to the distance in nm over which transmittance increases from 1 to 80% (a higher value indicates a less steep transition from absorbing to transmitting and is generally unfavourable); and ^a denotes an average of multiple measurements. As a general comment, it can be noted that the benzoyl substituted compounds gave similar absorbance maxima to the corresponding trifluoroacetyl derivative.

Data set [2] can be described thus: UV absorbance spectrum in solution (λmax, λcrit, extinction coefficients). To be noted: for λcrit: critical wavelength; for E (1%, 1 cm): mass extinction coefficient; for ε: molar extinction coefficient, in M-1 cm-1 (unit assumed).
Text: as §1, with “FIG. 1 is a graphical representation of the absorbance of compounds 142 and 143 measured in a 10 mm cuvette as 0.001% solutions in methanol (142 is the uppermost trace at peak point of approximately 330 nm); The” for “The”

Data set [3] is described as follows: Photostability protocol: thin film irradiated with xenon arc lamp. The conditions noted are these: 1 hour xenon arc lamp. As to the method: 1 mL of a 3% solution of the test compound (30 mg of test compound in 1 mL solvent) was prepared in a solvent mix made up of 50% EtOH and 25% capric/caprylic triglyceride and 25% C12-C15 alkyl benzoate. 50 μL of this solution (containing 1.5 mg of test compound) was added carefully to the centre of a glass microscope slide and the volatile components left to evaporate in the dark for at least 3 hours to give a liquid film. The prepared films were then exposed for 1 hour to an Eimac 150 W xenon arc lamp filtered through Pyrex (15 Amp supply current, samples 19 cm from the lamp) previously allowed to warm up for 15 minutes prior to sample exposure. The irradiation was performed in a fume cupboard where the air flow was sufficient to keep sample T<30° C. One hour's exposure represented a calculated radiation dose (using meter) of approximately 100 MED.
In order to calculate the photostability of the test compounds, the exposed slides were placed in a beaker and rinsed with 2×5 mL EtOH, 1×5 mL MeOH. The combined washings were then added to a 100 mL volumetric flask and made up to 100 mL total volume with methanol. The UV absorbance was then measured in a 10 mm cuvette. The percent stability is measured as the ratio of absorbance at λmax for the irradiated sample compared to the unirradiated sample.
The thin films are a good surrogate for testing the stability of a candidate in, for example, a sunscreen formulation as they use cosmetic emollients as solvent and are formed at cosmetically relevant concentrations.

Consider `COC(=O)c1ccc2c(c1)CCN2/C=C(/C(=O)OC1(C)CCCCC1)c1ccccc1` [Compound 288], for which, in data set [1], the Steepness was found to be 28 nm and the “Breakthrough (1% T at 0.1%)” value came to 383 nm. For the same compound, in data set [2], the λmax was 356 nm; the λcrit amounted to 370 nm; the “E (1%, 1 cm)” value is 1360; the ε was found to be 57009.

With `CCOC(=O)/C(=C\N(C)C)c1ccccc1` [Compound 171], in data set [3], the “Photostability (% remains)” value came to 18%. Moreover, in data set [2], the λmax amounted to 291 nm; the “E (1%, 1 cm)” value worked out at 1169; the ε was determined as 22598.

Consider `O=C(/C(=C(/c1ccccc1)N1CCCC1)c1ccccc1)C(F)(F)F` [Compound 204], for which the “Photostability (% remains)” value in data set [3] is on record as 70%. In data set [2], the λmax stood at 363 nm; the λcrit is reported as 387 nm; the “E (1%, 1 cm)” value is 358; the ε is recorded as 12357.

`CCN(/C=C(\C(=O)C(F)(F)C(F)(F)C(F)(F)F)c1ccccc1)c1ccccc1` [Compound 191]: the “Photostability (% remains)” value in data set [3] turned out to be 95%. Besides, in data set [2], the λmax is 332 nm; the λcrit turned out to be 370 nm; the “E (1%, 1 cm)” value is 452; the ε is recorded as 18948.

For the compound `CCCCC(CC)COC(=O)c1cccc(N(/C=C(/C(=O)C(F)(F)F)c2ccccc2)CC)c1` (centres unmarked) [Compound 232], in data set [1], the Steepness was 35 nm and the “Breakthrough (1% T at 0.1%)” value is recorded as 373 nm. In data set [2], the λmax worked out at 334 nm; the λcrit amounted to 368 nm; the “E (1%, 1 cm)” value turned out to be 430; the ε is recorded as 20462.

Turning to `COC(=O)c1ccc(N(/C=C(\C(=O)C(F)(F)F)c2ccccc2)c2ccccc2)cc1` [Compound 229], in data set [1], the Steepness is 33 nm and the “Breakthrough (1% T at 0.1%)” value is recorded as 403 nm. Also, in data set [2], the λmax came to 356 nm; the λcrit came to 382 nm; the “E (1%, 1 cm)” value was 786; the ε worked out at 33427.

For `CCCCC(CC)COC(=O)c1ccc(N(/C=C(\C(=O)C(F)(F)F)c2ccccc2)c2ccccc2)cc1` (centres unmarked) [Compound 230], in data set [1], the Steepness is 34 nm and the “Breakthrough (1% T at 0.1%)” value is 398 nm. Besides, in data set [2], the λmax is recorded as 355 nm; the λcrit is 381 nm; the “E (1%, 1 cm)” value is 522; the ε was 27313.

`COC(=O)c1ccc2c(c1)CCN2/C=C(/C(=O)c1ccc(C)cc1)c1ccccc1` [Compound 284]: in data set [1], the Steepness is listed as 30 nm and the “Breakthrough (1% T at 0.1%)” value came to 423 nm. In addition, in data set [2], the λmax worked out at 371 nm; the λcrit turned out to be 389 nm; the “E (1%, 1 cm)” value is recorded as 1150; the ε came out at 45689.

For `O=C(/C(=C\N1CCc2cc(C(F)(F)F)ccc21)c1ccccc1)C(F)(F)F` [Compound 235], in data set [1], the Steepness was determined as 19 nm and the “Breakthrough (1% T at 0.1%)” value was 409 nm. For the same compound, in data set [2], the λmax is reported as 361 nm; the λcrit stood at 386 nm; the “E (1%, 1 cm)” value is listed as 965; the ε is 37158.

Turning to `CCN(/C=C(\C(=O)C(F)(F)F)c1ccccc1)CCCCCCN(/C=C(\C(=O)C(F)(F)F)c1ccccc1)CC` [Compound 242], in data set [1], the Steepness is listed as 52 nm and the “Breakthrough (1% T at 0.1%)” value is listed as 361 nm. Also, in data set [2], the λmax amounted to 318 nm; the λcrit came out at 353 nm; the “E (1%, 1 cm)” value was 544; the ε came out at 30981.

With `O=C(OCCCOC(=O)c1ccc2c(c1)CCN2/C=C(\C(=O)C(F)(F)F)c1ccccc1)c1ccc2c(c1)CCN2/C=C(\C(=O)C(F)(F)F)c1ccccc1` [Compound 228], the “Photostability (% remains)” value in data set [3] is 95%. In addition, in data set [2], the λmax is 374 nm; the λcrit is on record as 391 nm; the “E (1%, 1 cm)” value is recorded as 1168; the ε is 89042.

In the case of `CN(C)S(=O)(=O)c1ccc(C(=O)/C(=C/N(c2ccccc2)c2ccccc2)c2ccccc2)cc1` [Compound 265], in data set [1], the Steepness amounted to 48 nm and the “Breakthrough (1% T at 0.1%)” value was determined as 418 nm. Moreover, in data set [2], the λmax worked out at 360 nm; the λcrit is on record as 387 nm; the “E (1%, 1 cm)” value came out at 327; the ε turned out to be 15775.

As for `CCCCCCC(=O)C1=CN(c2ccc(N3C=C(C(=O)CCCCCC)C(C)(C)CC3)cc2)CCC1(C)C` [Compound 129, reference compound], in data set [1], the Steepness is listed as 20 nm and the “Breakthrough (1% T at 0.1%)” value worked out at 397 nm. Also, in data set [2], the λmax is reported as 359 nm; the λcrit is 378 nm; the “E (1%, 1 cm)” value was 1169 and 1350; the ε was 60809 and 70222.

For `CN(/C=C(\C(=O)C(F)(F)F)c1ccccc1)c1ccccc1` [Compound 183], the “Photostability (% remains)” value in data set [3] is 90%. Moreover, the Photostability in data set [3] (ratio of absorbance at λmax irradiated vs unirradiated, ^a = average of multiple measurements) is 90%. In data set [2], the λmax came to 332 nm; the λcrit was 367 nm; the “E (1%, 1 cm)” value amounted to 759; the ε was determined as 23153.

In the case of `CCN(/C=C(/C(=O)C(F)(F)F)c1ccccc1)c1ccc(C(=O)OC)cc1` [Compound 239], in data set [1], the Steepness stood at 28 nm and the “Breakthrough (1% T at 0.1%)” value is given as 391 nm. In data set [2], the λmax is 348 nm; the λcrit turned out to be 375 nm; the “E (1%, 1 cm)” value was 728; the ε amounted to 25349.

Regarding `COC(=O)c1ccc2c(c1)CCN2/C=C(/C(=O)C(=O)Oc1ccccc1)c1ccccc1` [Compound 281], in data set [1], the Steepness was 34 nm and the “Breakthrough (1% T at 0.1%)” value worked out at 419 nm. Moreover, in data set [2], the λmax is on record as 376 nm; the λcrit was found to be 392 nm; the “E (1%, 1 cm)” value is 703; the ε was 30040.

As to `COC(=O)c1ccc2c(c1)CCN2/C=C(/C(=O)c1cccc(C)c1)c1ccccc1` [Compound 286], in data set [1], the Steepness worked out at 46 nm and the “Breakthrough (1% T at 0.1%)” value worked out at 423 nm. In data set [2], the λmax is 370 nm; the λcrit amounted to 389 nm; the “E (1%, 1 cm)” value was found to be 1205; the ε turned out to be 47867.

Turning to `COc1ccc2c(c1)CCN2/C=C(\C(=O)C(F)(F)F)c1ccccc1` [Compound 200], in data set [3], the “Photostability (% remains)” value was determined as 91%. Also, in data set [2], the λmax is 381 nm; the λcrit was found to be 393 nm; the “E (1%, 1 cm)” value stood at 1004; the ε is reported as 34855.

Regarding `O=C(/C(=C\N1CCCN(/C=C(\C(=O)C(F)(F)F)c2ccccc2)c2ccccc21)c1ccccc1)C(F)(F)F` [Compound 224], in data set [3], the “Photostability (% remains)” value is 97%. For the same compound, in data set [2], the λmax was determined as 323 nm; the λcrit was 366 nm; the “E (1%, 1 cm)” value is given as 690; the ε was 37546.

`CC(C)(C)C(=O)/C(=C/N(c1ccccc1)c1ccccc1)c1ccccc1` [Compound 294]: in data set [1], the Steepness is given as 28 nm and the “Breakthrough (1% T at 0.1%)” value is given as 383 nm. In addition, in data set [2], the λmax is listed as 344 nm; the λcrit is on record as 373 nm; the “E (1%, 1 cm)” value is given as 492; the ε is on record as 17462.
